Laboratory results: patent US20150105252A1, “SUBSTITUTED PYRAZOLES AS HERBICIDES” (E I DU PONT DE NEMOURS AND COMPANY, priority 2013, published 2015)

What was measured:
barnyardgrass [1] = assay: Test B flood; type: in vivo, Echinochloa crus-galli; conditions: 250 g ai/ha, visual rating on 0 to 100 scale (0 no effect, 100 complete control), 13 to 15 days
Protocol: (§1) Seeds selected from rice (Oryza sativa), sedge, umbrella (small-flower umbrella sedge Cyperus difformis), ducksalad (Heteranthera limosa), and barnyardgrass (Echinochloa crus-galli) were grown to the 2-leaf stage for testing. At time of treatment, test pots were flooded to 3 cm above the soil surface, treated by application of test compounds directly to the paddy water, and then maintained at that water depth for the duration of the test.
(§2) Treated plants and controls were maintained in a greenhouse for 13 to 15 days, after which time all species were compared to controls and visually evaluated. Plant response ratings, summarized in Table B, are based on a scale of 0 to 100 where 0 is no effect and 100 is complete control. A dash (-) response means no test result.

velvetleaf [2] = assay: Test A postemergence; type: in vivo, Abutilon theophrasti
Outline: (§3)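 Scoring was visual, on a scale where 100 means complete control and 0 means no effect, comparing treated with untreated plants around 10 days post-application. Compounds in surfactant-containing non-phytotoxic solvent were sprayed onto soil preemergence or onto one- to two-leaf seedlings (2–10 cm) postemergence.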

barnyardgrass [3] = assay: Test A postemergence; type: in vivo, Echinochloa crus-galli
Outline: as §3

ducksalad = assay: Test B flood; type: in vivo, Heteranthera limosa; conditions: 250 g ai/ha, visual rating on 0 to 100 scale (0 no effect, 100 complete control), 13 to 15 days
Protocol: as §1, §2

foxtail, giant [4] = assay: Test A postemergence; type: in vivo, Setaria faberii
Outline: as §3

rice = assay: Test B flood; type: in vivo, Oryza sativa; conditions: 250 g ai/ha, visual rating on 0 to 100 scale (0 no effect, 100 complete control), 13 to 15 days
Protocol: as §1, §2

pigweed [5] = assay: Test A postemergence; type: in vivo, Amaranthus retroflexus
Outline: as §3

barnyardgrass [6] = assay: Test A preemergence; type: in vivo, Echinochloa crus-galli; conditions: preemergence
Outline: as §3

wheat [7] = assay: Test A preemergence; type: in vivo, Triticum aestivum; conditions: preemergence; for Wheat plant response rating (0 to 100 scale): visual injury approx. 10 days after treatment
Outline: as §3

wheat [8] = assay: Test A postemergence; type: in vivo, Triticum aestivum
Outline: as §3

crabgrass, large [9] = assay: Test A postemergence; type: in vivo, Digitaria sanguinalis
Outline: as §3

velvetleaf [10] = assay: Test A preemergence; type: in vivo, Abutilon theophrasti; conditions: preemergence; for Velvetleaf plant response rating (0 to 100 scale): visual injury approx. 10 days after treatment
Outline: as §3

pigweed [11] = assay: Test A preemergence; type: in vivo, Amaranthus retroflexus; conditions: preemergence; for Pigweed plant response rating (0 to 100 scale): visual injury approx. 10 days after treatment
Outline: as §3

corn [12] = assay: Test A postemergence; type: in vivo, Zea mays
Outline: as §3

sedge, umbrella = assay: Test B flood; type: in vivo, Cyperus difformis; conditions: 250 g ai/ha, visual rating on 0 to 100 scale (0 no effect, 100 complete control), 13 to 15 days
Protocol: as §1, §2

foxtail, giant [13] = assay: Test A preemergence; type: in vivo, Setaria faberii; conditions: preemergence; for Foxtail, Giant plant response rating (0 to 100 scale): visual injury approx. 10 days after treatment
Outline: as §3

morningglory [14] = assay: Test A postemergence; type: in vivo, Ipomoea spp.
Outline: as §3

corn [15] = assay: Test A preemergence; type: in vivo, Zea mays; conditions: preemergence; for Corn plant response rating (0 to 100 scale): visual injury approx. 10 days after treatment
Outline: as §3

morningglory [16] = assay: Test A preemergence; type: in vivo, Ipomoea spp.; conditions: preemergence; for Morningglory plant response rating (0 to 100 scale): visual injury approx. 10 days after treatment
Outline: as §3

crabgrass, large [17] = assay: Test A preemergence; type: in vivo, Digitaria sanguinalis; conditions: preemergence; for Crabgrass, Large plant response rating (0 to 100 scale): visual injury approx. 10 days after treatment
Outline: as §3

[18] = Postemergence, 500 g ai/ha, visual rating after approx. 10 days, 0 to 100 scale (0 no effect, 100 complete control)
[19] = postemergence, 125 g ai/ha, about 10 days, visual rating on 0 to 100 scale (0 no effect, 100 complete control)
[20] = Postemergence, 125 g ai/ha, 0 to 100 scale, 0 no effect, 100 complete control
[21] = 125 g ai/ha, visual injury, 0 to 100 scale, approx. 10 days
[22] = 500 g ai/ha, visual injury after approx. 10 days, 0 to 100 scale (0 no effect, 100 complete control)
[23] = Postemergence, 500 g ai/ha, 0 to 100 scale (0 no effect, 100 complete control)

CCCc1cc(C(=O)Nc2ccc(F)cc2)nn1Oc1ccnc(C(F)(F)F)c1 [Compound 94]
Plant response rating, Barnyardgrass (barnyardgrass [1]): 0
Velvetleaf plant response rating (velvetleaf [2]; [18]): 0
Velvetleaf plant response rating (velvetleaf [2]; [19]): 0
Barnyardgrass plant response rating (barnyardgrass [3]; [20]): 0
Barnyardgrass plant response rating (barnyardgrass [3]; [18]): 0
Plant response rating, Ducksalad (ducksalad): 0
Foxtail, Giant plant response rating (foxtail, giant [4]; [18]): 0
Foxtail, Giant plant response rating (foxtail, giant [4]; [19]): 0
Plant response rating, Rice (rice): 0
Pigweed plant response rating (pigweed [5]; [18]): 0
Pigweed plant response rating (pigweed [5]; [19]): 0
Barnyardgrass plant response rating (barnyardgrass [6]; [21]): 0
Barnyardgrass plant response rating (barnyardgrass [6]; [22]): 0
Wheat plant response rating (wheat [7]; [21]): 0
Wheat plant response rating (wheat [7]; [22]): 0
Wheat plant response rating (wheat [8]; [18]): 0
Wheat plant response rating (wheat [8]; [19]): 0
Crabgrass, Large plant response rating (crabgrass, large [9]; [18]): 0
Crabgrass, Large plant response rating (crabgrass, large [9]; [19]): 0
Velvetleaf plant response rating (velvetleaf [10]; [21]): 0
Velvetleaf plant response rating (velvetleaf [10]; [22]): 0
Pigweed plant response rating (pigweed [11]; [21]): 0
Pigweed plant response rating (pigweed [11]; [22]): 0
Corn plant response rating (corn [12]; [18]): 0
Corn plant response rating (corn [12]; [19]): 0
Plant response rating, Sedge, Umbrella (sedge, umbrella): 0
Foxtail, Giant plant response rating (foxtail, giant [13]; [21]): 0
Foxtail, Giant plant response rating (foxtail, giant [13]; [22]): 0
Morningglory plant response rating (morningglory [14]; [18]): 0
Morningglory plant response rating (morningglory [14]; [19]): 0
Corn plant response rating (corn [15]; [21]): 0
Corn plant response rating (corn [15]; [22]): 0
Morningglory plant response rating (morningglory [16]; [21]): 0
Morningglory plant response rating (morningglory [16]; [22]): 0
Crabgrass, Large plant response rating (crabgrass, large [17]; [21]): 0
Crabgrass, Large plant response rating (crabgrass, large [17]; [22]): 0

CCc1cc(C(=O)NCC#N)nn1Cc1ccnc(C(F)(F)F)c1 [Compound 147]
Plant response rating, Barnyardgrass (barnyardgrass [1]): 0
Velvetleaf plant response rating (velvetleaf [2]; [23]): 50
Velvetleaf plant response rating (velvetleaf [2]; [19]): 30
Barnyardgrass plant response rating (barnyardgrass [3]; [23]): 30
Barnyardgrass plant response rating (barnyardgrass [3]; [19]): 10
Plant response rating, Ducksalad (ducksalad): 0
Foxtail, Giant plant response rating (foxtail, giant [4]; [23]): 30
Foxtail, Giant plant response rating (foxtail, giant [4]; [19]): 10
Plant response rating, Rice (rice): 0
Pigweed plant response rating (pigweed [5]; [23]): 90
Pigweed plant response rating (pigweed [5]; [19]): 60
Barnyardgrass plant response rating (barnyardgrass [6]; [21]): 0
Barnyardgrass plant response rating (barnyardgrass [6]; [22]): 30
Wheat plant response rating (0 to 100 scale) (wheat [7]; 125 g ai/ha): 0
Wheat plant response rating (wheat [7]; [22]): 0
Wheat plant response rating (wheat [8]; [23]): 0
Wheat plant response rating (wheat [8]; [19]): 0
Crabgrass, Large plant response rating (crabgrass, large [9]; [23]): 40
Crabgrass, Large plant response rating (crabgrass, large [9]; [19]): 10
Velvetleaf plant response rating (0 to 100 scale) (velvetleaf [10]; 125 g ai/ha): 0
Velvetleaf plant response rating (velvetleaf [10]; [22]): 30
Pigweed plant response rating (0 to 100 scale) (pigweed [11]; 125 g ai/ha): 90
Pigweed plant response rating (pigweed [11]; [22]): 100
Corn plant response rating (corn [12]; [23]): 10
Corn plant response rating (corn [12]; [19]): 0
Plant response rating, Sedge, Umbrella (sedge, umbrella): 0
Foxtail, Giant plant response rating (0 to 100 scale) (foxtail, giant [13]; 125 g ai/ha): 10
Foxtail, Giant plant response rating (foxtail, giant [13]; [22]): 80
Morningglory plant response rating (morningglory [14]; [23]): 70
Morningglory plant response rating (morningglory [14]; [19]): 30
Corn plant response rating (0 to 100 scale) (corn [15]; 125 g ai/ha): 0
Corn plant response rating (corn [15]; [22]): 0
Morningglory plant response rating (0 to 100 scale) (morningglory [16]; 125 g ai/ha): 20
Morningglory plant response rating (morningglory [16]; [22]): 70
Crabgrass, Large plant response rating (0 to 100 scale) (crabgrass, large [17]; 125 g ai/ha): 50
Crabgrass, Large plant response rating (crabgrass, large [17]; [22]): 100

CCCNC(=O)c1cc(Br)n(Cc2cccc(C(F)(F)F)c2)n1 [Compound 159]
Plant response rating, Barnyardgrass (barnyardgrass [1]): 0
Velvetleaf plant response rating (velvetleaf [2]; [23]): 70
Velvetleaf plant response rating (velvetleaf [2]; [19]): 60
Barnyardgrass plant response rating (barnyardgrass [3]; [23]): 30
Barnyardgrass plant response rating (barnyardgrass [3]; [19]): 0
Plant response rating, Ducksalad (ducksalad): 0
Foxtail, Giant plant response rating (foxtail, giant [4]; [23]): 30
Foxtail, Giant plant response rating (foxtail, giant [4]; [19]): 20
Plant response rating, Rice (rice): 0
Pigweed plant response rating (pigweed [5]; [23]): 60
Pigweed plant response rating (pigweed [5]; [19]): 50
Barnyardgrass plant response rating (barnyardgrass [6]; [21]): 0
Barnyardgrass plant response rating (barnyardgrass [6]; [22]): 20
Wheat plant response rating (0 to 100 scale) (wheat [7]; 125 g ai/ha): 0
Wheat plant response rating (wheat [7]; [22]): 0
Wheat plant response rating (wheat [8]; [23]): 20
Wheat plant response rating (wheat [8]; [19]): 0
Crabgrass, Large plant response rating (crabgrass, large [9]; [23]): 30
Crabgrass, Large plant response rating (crabgrass, large [9]; [19]): 20
Velvetleaf plant response rating (0 to 100 scale) (velvetleaf [10]; 125 g ai/ha): 0
Velvetleaf plant response rating (velvetleaf [10]; [22]): 0
Pigweed plant response rating (0 to 100 scale) (pigweed [11]; 125 g ai/ha): 10
Pigweed plant response rating (pigweed [11]; [22]): 60
Corn plant response rating (corn [12]; [23]): 20
Corn plant response rating (corn [12]; [19]): 10
Plant response rating, Sedge, Umbrella (sedge, umbrella): 0
Foxtail, Giant plant response rating (0 to 100 scale) (foxtail, giant [13]; 125 g ai/ha): 0
Foxtail, Giant plant response rating (foxtail, giant [13]; [22]): 30
Morningglory plant response rating (morningglory [14]; [23]): 40
Morningglory plant response rating (morningglory [14]; [19]): 30
Corn plant response rating (0 to 100 scale) (corn [15]; 125 g ai/ha): 0
Corn plant response rating (corn [15]; [22]): 0
Morningglory plant response rating (0 to 100 scale) (morningglory [16]; 125 g ai/ha): 0
Morningglory plant response rating (morningglory [16]; [22]): 0
Crabgrass, Large plant response rating (0 to 100 scale) (crabgrass, large [17]; 125 g ai/ha): 10
Crabgrass, Large plant response rating (crabgrass, large [17]; [22]): 90

CCCNC(=O)c1cc(CC)n(Oc2cccc(C(F)(F)F)c2)n1 [Compound 216]
Plant response rating, Barnyardgrass (barnyardgrass [1]): 0
Velvetleaf plant response rating (velvetleaf [2]; [20]): 0
Velvetleaf plant response rating (velvetleaf [2]; [23]): 40
Barnyardgrass plant response rating (barnyardgrass [3]; [20]): 0
Barnyardgrass plant response rating (barnyardgrass [3]; [23]): 70
Plant response rating, Ducksalad (ducksalad): 20
Foxtail, Giant plant response rating (foxtail, giant [4]; [20]): 0
Foxtail, Giant plant response rating (foxtail, giant [4]; [23]): 40
Plant response rating, Rice (rice): 0
Pigweed plant response rating (pigweed [5]; [20]): 20
Pigweed plant response rating (pigweed [5]; [23]): 30
Barnyardgrass plant response rating (0 to 100 scale, 0 is no effect, 100 is complete control) (barnyardgrass [6]; 125 g ai/ha, visual injury approx. 10 days after treatment): 0
Barnyardgrass plant response rating (barnyardgrass [6]; [22]): 80
Wheat plant response rating (0 to 100 scale) (wheat [7]; 125 g ai/ha): 0
Wheat plant response rating (wheat [8]; [20]): 0
Wheat plant response rating (wheat [8]; [23]): 0
Crabgrass, Large plant response rating (crabgrass, large [9]; [20]): 20
Crabgrass, Large plant response rating (crabgrass, large [9]; [23]): 70
Velvetleaf plant response rating (0 to 100 scale) (velvetleaf [10]; 125 g ai/ha): 0
Pigweed plant response rating (0 to 100 scale) (pigweed [11]; 125 g ai/ha): 0
Corn plant response rating (corn [12]; [20]): 0
Corn plant response rating (corn [12]; [23]): 50
Plant response rating, Sedge, Umbrella (sedge, umbrella): 30
Foxtail, Giant plant response rating (0 to 100 scale) (foxtail, giant [13]; 125 g ai/ha): 10
Foxtail, Giant plant response rating (foxtail, giant [13]; [22]): 40
Morningglory plant response rating (morningglory [14]; [20]): 20
Morningglory plant response rating (morningglory [14]; [23]): 70
Corn plant response rating (0 to 100 scale) (corn [15]; 125 g ai/ha): 0
Corn plant response rating (corn [15]; [22]): 10
Morningglory plant response rating (0 to 100 scale) (morningglory [16]; 125 g ai/ha): 0
Crabgrass, Large plant response rating (0 to 100 scale) (crabgrass, large [17]; 125 g ai/ha): 60
Crabgrass, Large plant response rating (crabgrass, large [17]; [22]): 90
